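Results reflect a 48-hour exposure of cells in 96-well plates to compound at five concentrations. GI50 = concentration required for 50% inhibition of growth. Definition used: TGI = concentration required for complete inhibition of growth.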
How the values were obtained:
Assay in all cases: NCI tumour cell line growth inhibition, 48 h
[1] = system: CCRF-CEM leukemia
[2] = system: U251 CNS
[3] = system: SF-268 CNS
[4] = system: MDA-N
[5] = system: SNB-75 CNS
[6] = system: ACHN renal
[7] = system: HS 578T breast
[8] = system: COLO 205 colon
[9] = system: HCC-2998 colon
[10] = system: MDA-MB-435
[11] = system: SK-OV-3 ovarian
[12] = system: A498 renal
[13] = system: HOP-92 NSCLC
[14] = system: HCT-116 colon
[15] = system: SF-539 CNS
[16] = system: DU-145 prostate

`Cc1nc2ccccc2c(=O)n1NC(=O)c1ccccc1O` was tested, and the TGI [1] was > 100 µM, the TGI [2] was > 100 µM and the TGI [3] was > 100 µM. The TGI [4] was > 100 µM, the TGI [5] was > 100 µM and the TGI [6] was > 100 µM. For the same compound, the TGI [7] was > 100 µM, the TGI [8] was > 100 µM and the TGI [9] was > 100 µM. The TGI [10] was > 100 µM, the TGI [11] was > 100 µM and the TGI [12] was > 100 µM. For the same compound, the TGI [13] was > 100 µM, the TGI [14] was > 100 µM and the TGI [15] was > 100 µM. The TGI [16] was > 100 µM.
For `CN(C)c1ccc(/C=C(\NC(=O)c2ccccc2)C(=O)Nc2ccccc2C(=O)O)cc1`, the TGI [1] was > 100 µM, the TGI [2] was > 100 µM and the TGI [3] was > 100 µM. For the same compound, the TGI [4] was > 100 µM, the TGI [5] was > 100 µM and the TGI [6] was > 100 µM. The TGI [7] was > 100 µM, the TGI [8] was > 100 µM and the TGI [9] was > 100 µM. The TGI [10] was > 100 µM, the TGI [11] was > 100 µM and the TGI [12] was > 100 µM. For the same compound, the TGI [13] was > 100 µM, the TGI [14] was > 100 µM and the TGI [15] was > 100 µM. The TGI [16] was > 100 µM.
In the case of `CC(C)(C)OC(=O)NC(Cc1cnc[nH]1)C(=O)N1CCCC1C(N)=O` (stereo unspecified), the TGI [1] was > 100 µM, the TGI [2] was > 100 µM and the TGI [3] was > 100 µM. For the same compound, the TGI [4] was > 100 µM, the TGI [5] was > 100 µM and the TGI [6] was > 100 µM. The TGI [7] was > 100 µM, the TGI [8] was > 100 µM and the TGI [9] was > 100 µM. For the same compound, the TGI [10] was > 100 µM, the TGI [11] was > 100 µM and the TGI [12] was > 100 µM. The TGI [13] was > 100 µM, the TGI [14] was > 100 µM and the TGI [15] was > 100 µM. For the same compound, the TGI [16] was > 100 µM.
With `COc1cc(C(N)=O)cc(NC(=O)/C=C/c2ccccc2)c1OC` the TGI [1] was > 100 µM, the TGI [2] was > 100 µM and the TGI [3] was > 100 µM. For the same compound, the TGI [4] was > 100 µM, the TGI [5] was 93.1 µM and the TGI [6] was > 100 µM. For the same compound, the TGI [7] was > 100 µM, the TGI [8] was > 100 µM and the TGI [9] was > 100 µM. For the same compound, the TGI [10] was > 100 µM, the TGI [11] was > 100 µM and the TGI [12] was > 100 µM. For the same compound, the TGI [13] was > 100 µM, the TGI [14] was > 100 µM and the TGI [15] was > 100 µM. The TGI [16] was > 100 µM.
For `CN(C)CCCNc1nnc(NCCCN(C)C)c2c(=O)c3sccc3[nH]c12`, the TGI [1] was > 50.2 µM, the TGI [2] was > 100 µM and the TGI [3] was 25.7 µM. The TGI [4] was 14.9 µM, the TGI [5] was 19.6 µM and the TGI [6] was > 100 µM. For the same compound, the TGI [7] was > 88.6 µM, the TGI [8] was > 20.2 µM and the TGI [9] was 23.7 µM. The TGI [10] was > 54.7 µM, the TGI [11] was > 100 µM and the TGI [12] was > 100 µM. The TGI [13] was > 100 µM, the TGI [14] was > 33.8 µM and the TGI [15] was 30.1 µM. The TGI [16] was > 100 µM.
In the case of `CCCN(CCCCN1C(=O)c2ccccc2C1=O)CC1COc2ccccc2O1` (stereo unspecified), the TGI [1] was 88.8 µM, the TGI [2] was > 100 µM and the TGI [3] was > 100 µM. The TGI [4] was > 100 µM, the TGI [5] was > 100 µM and the TGI [6] was > 100 µM. For the same compound, the TGI [7] was > 100 µM, the TGI [8] was > 100 µM and the TGI [9] was > 100 µM. For the same compound, the TGI [10] was > 100 µM, the TGI [11] was > 100 µM and the TGI [12] was > 100 µM. The TGI [13] was > 100 µM, the TGI [14] was > 100 µM and the TGI [15] was > 100 µM. For the same compound, the TGI [16] was > 100 µM.
With `CC1OC(OC2C(O)COC(OC3C(C)OC(OC4C(OC(=O)[C@]56CCC(C)(C)C[C@@H]5C5=CCC7[C@@]8(C)C[C@H](O)[C@H](OC9OC(CO)C(O)C(OC%10OC(CO)C(O)C(O)C%10O)C9O)[C@@](C)(CO)[C@@H]8CC[C@@]7(C)[C@]5(C)CC6)OCC(O)C4O)C(O)C3OC3OCC(O)C(O)C3O)C2O)C(O)C(O)C1O` (stereo partly specified) the TGI [1] was 25.2 µM, the TGI [2] was 20.1 µM and the TGI [3] was 30 µM. The TGI [4] was 7.24 µM, the TGI [5] was 30.9 µM and the TGI [6] was 19.5 µM. It also gave a TGI [7] of 34.8 µM, a TGI [8] of 3.82 µM and a TGI [9] of 4.44 µM. For the same compound, the TGI [10] was 7.72 µM, the TGI [11] was 29.4 µM and the TGI [12] was 5 µM. It also gave a TGI [13] of 31.1 µM, a TGI [14] of 23.7 µM and a TGI [15] of 32.1 µM. It also gave a TGI [16] of 19.7 µM.
In the case of `N#CC(C#N)=C(N)/C(C#N)=C/c1cc(O)c(O)c(Br)c1`, the TGI [1] was > 100 µM, the TGI [2] was > 100 µM and the TGI [3] was > 100 µM. For the same compound, the TGI [4] was > 100 µM, the TGI [5] was > 100 µM and the TGI [6] was > 100 µM. For the same compound, the TGI [7] was > 100 µM, the TGI [8] was > 100 µM and the TGI [9] was > 100 µM. For the same compound, the TGI [10] was > 100 µM, the TGI [11] was > 100 µM and the TGI [12] was > 100 µM. The TGI [13] was > 100 µM, the TGI [14] was > 100 µM and the TGI [15] was > 100 µM. For the same compound, the TGI [16] was > 100 µM.
In the case of `Cn1cc(C[C@@H](N)C(=O)O)c2ccccc21`, the TGI [1] was > 100 µM, the TGI [2] was > 100 µM and the TGI [3] was > 100 µM. The TGI [4] was > 100 µM, the TGI [5] was > 100 µM and the TGI [6] was > 100 µM. For the same compound, the GI50 [7] was > 100 µM, the TGI [7] was > 100 µM and the TGI [8] was > 100 µM. The TGI [9] was > 100 µM, the TGI [10] was > 100 µM and the TGI [11] was > 100 µM. The TGI [12] was > 100 µM, the GI50 [13] was > 100 µM and the TGI [13] was > 100 µM. For the same compound, the TGI [14] was > 100 µM, the TGI [15] was > 100 µM and the TGI [16] was > 100 µM.
For `O=c1cc(-c2ccccc2)oc2ccc(Oc3nnnn3-c3ccccc3)cc12`, the TGI [1] was > 100 µM, the TGI [2] was > 74.7 µM and the TGI [3] was 25.3 µM. The TGI [4] was > 100 µM, the TGI [5] was > 92.5 µM and the TGI [6] was > 100 µM. For the same compound, the TGI [7] was > 83 µM, the TGI [8] was > 100 µM and the TGI [9] was > 100 µM. For the same compound, the TGI [10] was > 41.9 µM, the TGI [11] was > 100 µM and the TGI [12] was > 100 µM. For the same compound, the TGI [13] was 58.1 µM, the TGI [14] was > 100 µM and the TGI [15] was > 86.8 µM. For the same compound, the TGI [16] was > 100 µM.
Work on `c1ccc2sc(C3(N4CCCCC4)CCCCCC3)cc2c1` yielded a TGI [1] of 26.1 µM, a TGI [2] of 31 µM and a TGI [3] of 46.7 µM. The TGI [4] was > 100 µM, the TGI [5] was 42 µM and the TGI [6] was 35 µM. It also gave a TGI [7] of 42 µM, a TGI [8] of 31.8 µM and a TGI [9] of 27.9 µM. For the same compound, the TGI [10] was 55.2 µM, the TGI [11] was 66.7 µM and the TGI [12] was 33.7 µM. It also gave a TGI [13] of 51.8 µM, a TGI [14] of 32.8 µM and a TGI [15] of 38.2 µM. For the same compound, the TGI [16] was > 100 µM.
Work on `[N-]=[N+]=Nc1c([N+](=O)[O-])c(Cl)nc2ccccc12` yielded a TGI [1] of 1.44 µM, a TGI [2] of 12.4 µM and a TGI [3] of 11.7 µM. It also gave a TGI [4] of 6.56 µM, a TGI [5] of 22.1 µM and a TGI [6] of 3.22 µM. For the same compound, the TGI [7] was 8.64 µM, the TGI [8] was 3.29 µM and the TGI [9] was 4.17 µM. The TGI [10] was 6.64 µM, the TGI [11] was 27.7 µM and the TGI [12] was 26.8 µM. It also gave a TGI [13] of 3.66 µM, a TGI [14] of 3.09 µM and a TGI [15] of 9.74 µM. The TGI [16] was 5.35 µM.
With `CCCC(=O)OC[n+]1cccc(-c2c(COC(=O)NC(C)C)c(COC(=O)NC(C)C)c3n2CCC3)c1` the TGI [1] was > 66.3 µM, the TGI [2] was > 100 µM and the TGI [3] was > 100 µM. For the same compound, the TGI [4] was > 100 µM, the TGI [5] was > 100 µM and the TGI [6] was > 100 µM. For the same compound, the TGI [7] was > 100 µM, the TGI [8] was > 100 µM and the TGI [9] was > 100 µM. The TGI [10] was > 100 µM, the TGI [11] was > 100 µM and the TGI [12] was > 61.6 µM. For the same compound, the TGI [13] was > 88.7 µM, the TGI [14] was > 100 µM and the TGI [15] was 60.9 µM. The TGI [16] was > 100 µM.
With `O=C(CCc1ccc(O)c(O)c1)NCCc1cc(OCc2ccccc2)cc(OCc2ccccc2)c1` the TGI [1] was 11.5 µM, the TGI [2] was > 100 µM and the TGI [3] was 42.3 µM. It also gave a TGI [4] of 29.2 µM, a TGI [5] of 22.2 µM and a TGI [6] of 19.3 µM. For the same compound, the TGI [7] was 40.2 µM, the TGI [8] was 14.6 µM and the TGI [9] was 23.5 µM. The TGI [10] was 60.8 µM, the TGI [11] was 31.3 µM and the TGI [12] was 37.7 µM. It also gave a TGI [13] of 35.6 µM, a TGI [14] of 31.6 µM and a TGI [15] of 30.1 µM. It also gave a TGI [16] of 32.3 µM.

From PubChem BioAssay (NCI)
